Assay results as given in publication PMC9144276, “In Vitro and In Silico Evaluation of Cholinesterase Inhibition by Alkaloids Obtained from Branches of Abuta panurensis Eichler” (Molecules, 2022).
Like-named read-outs stand apart in the source and are kept apart here.

Target: T1, acetylcholinesterase enzyme from an electric ray Tetronarce californica (Tetronarce californica, UniProt P04058)
T1 construct: purchased Sigma-Aldrich
Assay: Acetylcholinesterase inhibition assay (Ellman method, 96-well microplates)
Assay type: biochemical
Details: for inhibition percentage toward the AChE enzyme: concentration not given
Protocol: An acetylcholinesterase enzyme from an electric ray Tetronarce californica (Sigma-Aldrich, St. Louis, MO, USA) was used for the experiments. The in vitro AChE inhibition assay was performed in 96-well microplates according to the methodology proposed by Ellman et al. and Senol et al. with some modifications. The alkaloid fraction and alkaloids were tested at concentrations of 2.8; 5.6; 11.2; 22.5; 45.0 and 90.0 µg/mL. Initially, 20 µL of each sample from the stock solution (1 mg/mL) were added and serial dilutions were performed. Then, 150 µL of a sodium phosphate buffer pH = 8 ([…]), 20 µL of 5,5’-dithio-bis(2- nitrobenzoic)acid (DTNB, 0.0025 M), and 20 µL of the acetylcholinesterase enzyme (1 U/mL) were added subsequently to each well at 25 °C and left for 15 min. The reaction was initiated by the addition of 10 µL of […] (AChI) (0.1 M). Neostigmine (0.28–9.0 μg/mL) was used as a positive control.
A thiocholine formed by the enzymatic hydrolysis of the AChI, reacts with the DTNB giving rise to a yellow 5-mercapto-2-nitrobenzoate anion. Concentration of the latter in each well was measured as absorbance at 405 nm by using a 96-well microplate reader ELx800^TM (Bio Tek Instruments, Inc., Winooski, VT, USA). The transformation was monitored for 30 min at 5-min intervals. The inhibition curve was plotted as the inhibition percent vs. concentration. All assays were performed in triplicate. Statistical analysis was performed with GraphPad Prism 7.0® software.

[1] = TcAChE, Ellman, 25 °C, pH 8, triplicate, read-out: IC50 for the acetylcholinesterase (AChE) inhibition assay

T1 sequence (P04058 22-586): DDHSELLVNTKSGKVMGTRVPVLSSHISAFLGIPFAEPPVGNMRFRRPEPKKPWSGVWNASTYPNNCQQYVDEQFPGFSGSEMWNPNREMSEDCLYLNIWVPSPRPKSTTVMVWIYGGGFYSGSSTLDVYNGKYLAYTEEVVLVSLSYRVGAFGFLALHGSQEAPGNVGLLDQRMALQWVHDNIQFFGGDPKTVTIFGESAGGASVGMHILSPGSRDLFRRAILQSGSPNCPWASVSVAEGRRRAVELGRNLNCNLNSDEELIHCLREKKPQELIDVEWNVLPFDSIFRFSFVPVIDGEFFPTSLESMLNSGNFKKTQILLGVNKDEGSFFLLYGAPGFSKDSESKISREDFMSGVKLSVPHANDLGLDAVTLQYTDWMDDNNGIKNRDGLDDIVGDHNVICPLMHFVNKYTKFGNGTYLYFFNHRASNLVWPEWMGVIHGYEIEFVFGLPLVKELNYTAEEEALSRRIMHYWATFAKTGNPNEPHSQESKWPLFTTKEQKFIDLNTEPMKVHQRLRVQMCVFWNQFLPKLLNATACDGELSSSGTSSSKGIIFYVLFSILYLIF

| Structure (SMILES) | IC50 [1] [µM] | inhibition percentage toward the AChE enzyme (TcAChE) | IC50 [µM] |
| --- | --- | --- | --- |
| COc1cc2c(cc1OC)-c1cc3ccc(OC)c(OC)c3c[n+]1CC2 [palmatine 3, palmatine] | 35.25 ± 0.04 | above 70% | – |
| CN(C)C(=O)Oc1cccc([N+](C)(C)C)c1 [neostigmine, reference compound] | 3.72 ± 0.03 | above 70% | – |
| CN(CCCCNC(=O)/C=C/c1ccccc1)CCCNC(=O)/C=C/c1ccccc1 [5-N-methylmaytenine 4, 5-N-methylmaytenine] | – | above 70% | 19.55 ± 0.09 |
| COc1cc2c(cc1O)C(Cc1ccc(O)c(Oc3cc4c(cc3OC)CCNC4Cc3ccc(O)cc3)c1)NCC2 (single isomer, unassigned) [lindoldhamine isomer 1, Lindoldhamine isomer] | 39.38 ± 0.08 | above 70% | – |
| COc1cc2c3c(c1OC)C1(C=CC(=O)C=C1)CC3NCC2 (stereo not shown) [stepharine 2, stepharine] | 61.24 ± 0.03 | above 70% | – |
